# Data taken from patent US12186283B2, “Bismuth-thiol compositions and methods of use” (Microbion Corporation, priority 2018, dated 2025).
# Where two headings read alike, the source gives them in different places.
# What was measured:
# P. aeruginosa [1] = assay: Broth microdilution MIC (Example 10)
# Pseudomonas aeruginosa [2] = assay: Broth microdilution MIC (Example 12)
# [3] = tested on: Burkholderia cepacia complex; assay: Checkerboard FIC assay, BisEDT with CF agents (Example 10); assay type: cell-based, Burkholderia spp.; settings: B. cenocepacia isolate 0548; agent alone, as observed during FIC testing
# Acinetobacter baumannii = assay: Broth microdilution MIC (Example 12)
# Klebsiella pneumoniae = assay: Broth microdilution MIC (Example 12)
# [4] = tested on: Burkholderia cepacia complex; assay: Broth microdilution MIC (Example 10); settings: initial MIC testing
# Escherichia coli [5] = assay: Broth microdilution MIC (Example 12)
# Pseudomonas aeruginosa [6] = settings: P. aeruginosa ATCC 27853, QC organism; cited from earlier work
# P. aeruginosa [7] = settings: P. aeruginosa isolate 103, CLSI QC range in parenthesis, cited from earlier work
# Escherichia coli [8] = settings: E. coli ATCC 25922, QC organism; cited from earlier work
# [9] = P. aeruginosa ATCC 27853, QC organism
# [10] = Pseudomonas aeruginosa CDC 230, VIM/OXA
# [11] = Pseudomonas aeruginosa CDC 231, KPC/OXA
# [12] = Pseudomonas aeruginosa CDC 241, IMP/OXA
# [13] = Pseudomonas aeruginosa CDC 246, NDM/OXA
# [14] = Pseudomonas aeruginosa CDC 250, NDM/OXA
# [15] = Pseudomonas aeruginosa CDC 356, KPC
# [16] = Pseudomonas aeruginosa CDC 439, IMP
# [17] = Pseudomonas aeruginosa CDC 444, VIM
# [18] = Pseudomonas aeruginosa CDC 457, VIM
# [19] = Pseudomonas aeruginosa CDC 516, KPC/AmpC
# [20] = Pseudomonas aeruginosa CDC 518, KPC/AmpC
# [21] = Acinetobacter baumannii CDC 273, ESBL/OXA
# [22] = Acinetobacter baumannii CDC 274, ESBL/OXA
# [23] = Acinetobacter baumannii CDC 275, ESBL/OXA
# [24] = Acinetobacter baumannii CDC 277, ESBL/OXA
# [25] = Acinetobacter baumannii CDC 284, ESBL/OXA
# [26] = Acinetobacter baumannii CDC 307, OXA
# [27] = Acinetobacter baumannii CDC 308, ESBL/OXA
# [28] = Acinetobacter baumannii CDC 311, OXA
# [29] = Acinetobacter baumannii CDC 312, OXA
# [30] = Acinetobacter baumannii CDC 313, ESBL/OXA
# [31] = Acinetobacter baumannii NCTC 13304, OXA
# [32] = K. pneumoniae ATCC BAA-1705, QC organism
# [33] = Klebsiella pneumoniae ATCC BAA-1705, ESBL/KPC
# [34] = Klebsiella pneumoniae CDC 112, KPC
# [35] = Klebsiella pneumoniae CDC 113, ESBL/KPC
# [36] = Klebsiella pneumoniae CDC 115, ESBL/KPC
# [37] = Klebsiella pneumoniae CDC 120, ESBL/KPC
# [38] = Klebsiella pneumoniae CDC 126, ESBL/KPC
# [39] = Klebsiella pneumoniae CDC 129, ESBL/KPC
# [40] = Klebsiella pneumoniae CDC 135, ESBL/VIM
# [41] = Klebsiella pneumoniae CDC 138, ESBL/NDM
# [42] = Klebsiella pneumoniae CDC 158, ESBL/NDM/OXA
# [43] = Klebsiella pneumoniae MMX 9029, ESBL
# [44] = E. coli ATCC 25922, QC organism
# [45] = E. coli ATCC 35218, QC organism
# [46] = Escherichia coli ATCC 35218, ESBL
# [47] = Escherichia coli ATCC BAA-2471, NDM
# [48] = Escherichia coli CDC 114, ESBL/KPC
# [49] = Escherichia coli CDC 118, ESBL/NDM
# [50] = Escherichia coli CDC 503, ESBL/NDM
# [51] = Escherichia coli MMX 5755, ESBL
# [52] = Escherichia coli MMX 5756, ESBL
# [53] = Escherichia coli MMX 5758, ESBL
compound,measurement,setting,value
NCC[C@H](O)C(=O)N[C@@H]1C[C@H](N)[C@@H](O[C@H]2O[C@H](CN)[C@@H](O)[C@H](O)[C@H]2O)[C@H](O)[C@H]1O[C@H]1O[C@H](CO)[C@@H](O)[C@H](N)[C@H]1O [AMK],MIC,"P. aeruginosa [1]; P. aeruginosa isolate 103 (ATCC 25922), QC strain, initial MIC testing",2 µg/mL
same,MIC,"P. aeruginosa [1]; P. aeruginosa isolate 103 (ATCC 25922), during FIC testing, each agent tested alone for QC, one replicate",4 µg/mL
same,MIC,"P. aeruginosa [1]; P. aeruginosa isolate 1497 (TOB-R, AMK-R, CIP-I, AZT-R, COL-R), initial MIC testing",64 µg/mL
same,MIC,"P. aeruginosa [1]; P. aeruginosa isolate 1530 (TOB-R, AMK-R, CIP-R), initial MIC testing",64 µg/mL
same,MIC,"P. aeruginosa [1]; P. aeruginosa isolate 1553 (TOB-R, AMK-R, CIP-R), initial MIC testing",64 µg/mL
same,MIC,"P. aeruginosa [1]; P. aeruginosa isolate 6322 (MEM-R, TOB-R, AMK-R, CIP-R, AZT-R), initial MIC testing",64 µg/mL
same,MIC,"P. aeruginosa [1]; P. aeruginosa isolate 6977 (MEM-I, TOB-R, CIP-R, AZT-I), initial MIC testing",16 µg/mL
same,MIC,"P. aeruginosa [1]; P. aeruginosa isolate 7745 (MEM-R, CIP-R, AZT-R), initial MIC testing",4 µg/mL
same,MIC,"P. aeruginosa [1]; P. aeruginosa isolate 7754 (MEM-R, TOB-R, CIP-R, AZT-I), initial MIC testing",8 µg/mL
same,MIC,"P. aeruginosa [1]; P. aeruginosa isolate 7762 (MEM-I, CIP-I), initial MIC testing",8 µg/mL
same,MIC,"P. aeruginosa [1]; P. aeruginosa isolate 7871 (MEM-R, AZT-I), initial MIC testing",2 µg/mL
same,MIC,"P. aeruginosa [1]; P. aeruginosa isolate 7874, initial MIC testing",2 µg/mL
same,MIC,"P. aeruginosa [1]; P. aeruginosa isolate 7886 (MEM-R, CIP-R, AZT-R), initial MIC testing",8 µg/mL
same,MIC,"P. aeruginosa [1]; P. aeruginosa isolate 8797 (MEM-R, TOB-R, AMK-R, CIP-R, AZT-R, COL-R), initial MIC testing",>256 µg/mL
same,MIC,"P. aeruginosa [1]; P. aeruginosa isolate 9108 (CIP-R, AZT-I), initial MIC testing",4 µg/mL
same,MIC,Pseudomonas aeruginosa [2]; [9],2 µg/mL
same,MIC,Pseudomonas aeruginosa [2]; [10],>64 µg/mL
same,MIC,Pseudomonas aeruginosa [2]; [11],8 µg/mL
same,MIC,Pseudomonas aeruginosa [2]; [13],>64 µg/mL
same,MIC,Pseudomonas aeruginosa [2]; [14],>64 µg/mL
same,MIC,Pseudomonas aeruginosa [2]; [15],2 µg/mL
same,MIC,Pseudomonas aeruginosa [2]; [16],>64 µg/mL
same,MIC,Pseudomonas aeruginosa [2]; [17],>64 µg/mL
same,MIC,Pseudomonas aeruginosa [2]; [18],2 µg/mL
same,MIC,Pseudomonas aeruginosa [2]; [19],2 µg/mL
same,MIC,Pseudomonas aeruginosa [2]; [20],16 µg/mL
same,MIC,Acinetobacter baumannii; [21],>64 µg/mL
same,MIC,Acinetobacter baumannii; [22],16 µg/mL
same,MIC,Acinetobacter baumannii; [23],>64 µg/mL
same,MIC,Acinetobacter baumannii; [24],16 µg/mL
same,MIC,Acinetobacter baumannii; [26],>64 µg/mL
same,MIC,Acinetobacter baumannii; [27],>64 µg/mL
same,MIC,Acinetobacter baumannii; [28],>64 µg/mL
same,MIC,Acinetobacter baumannii; [29],1 µg/mL
same,MIC,Acinetobacter baumannii; [30],4 µg/mL
same,MIC,Acinetobacter baumannii; [31],0.5 µg/mL
same,MIC,Klebsiella pneumoniae; [32],16 µg/mL
same,MIC,Klebsiella pneumoniae; [33],16 µg/mL
same,MIC,Klebsiella pneumoniae; [34],16 µg/mL
same,MIC,Klebsiella pneumoniae; [35],16 µg/mL
same,MIC,Klebsiella pneumoniae; [36],0.5 µg/mL
same,MIC,Klebsiella pneumoniae; [37],16 µg/mL
same,MIC,Klebsiella pneumoniae; [38],2 µg/mL
same,MIC,Klebsiella pneumoniae; [40],16 µg/mL
same,MIC,Klebsiella pneumoniae; [41],>64 µg/mL
same,MIC,Klebsiella pneumoniae; [42],2 µg/mL
same,MIC,Klebsiella pneumoniae; [43],0.5 µg/mL
same,MIC,[4]; B. cenocepacia isolate 0548 (CIP-R),256 µg/mL
same,MIC,[4]; B. cenocepacia isolate 1631,256 µg/mL
same,MIC,[4]; B. cenocepacia isolate 1783,256 µg/mL
same,MIC,[4]; B. cenocepacia isolate 8555,256 µg/mL
same,MIC,[4]; B. cepacia isolate 0546,64 µg/mL
same,MIC,[4]; B. cepacia isolate 1793,64 µg/mL
same,MIC,[4]; B. cepacia isolate 9040,8 µg/mL
same,MIC,[4]; B. multivorans isolate 5665 (CIP-I),256 µg/mL
same,MIC,Escherichia coli [5]; [44],1 µg/mL
same,MIC,Escherichia coli [5]; [45],1 µg/mL
same,MIC,Escherichia coli [5]; [46],1 µg/mL
same,MIC,Escherichia coli [5]; [47],64 µg/mL
same,MIC,Escherichia coli [5]; [48],1 µg/mL
same,MIC,Escherichia coli [5]; [49],>64 µg/mL
same,MIC,"Escherichia coli [5]; Escherichia coli CDC 435, NDM",>64 µg/mL
same,MIC,"Escherichia coli [5]; Escherichia coli CDC 451, KPC",4 µg/mL
same,MIC,Escherichia coli [5]; [50],>64 µg/mL
same,MIC,"Escherichia coli [5]; Escherichia coli MMX 5745, KPC",0.5 µg/mL
same,MIC,Escherichia coli [5]; [51],16 µg/mL
same,MIC,Escherichia coli [5]; [52],64 µg/mL
same,MIC,Escherichia coli [5]; [53],1 µg/mL
same,"MIC, QC range",Pseudomonas aeruginosa [6],(1-4) μg/mL
same,"MIC, CLSI QC range",P. aeruginosa [7]; Table 24,(1-4) μg/mL
same,"MIC, CLSI QC range",P. aeruginosa [7]; Table 26,(1-4) μg/mL
CC(C)(O/N=C(\C(=O)N[C@@H]1C(=O)N2C(C(=O)[O-])=C(C[n+]3ccccc3)CS[C@H]12)c1csc(N)n1)C(=O)O [CAZ],MIC,Pseudomonas aeruginosa [2]; [9],2 µg/mL
same,MIC,Pseudomonas aeruginosa [2]; [10],64 µg/mL
same,MIC,Pseudomonas aeruginosa [2]; [11],>64 µg/mL
same,MIC,Pseudomonas aeruginosa [2]; [12],>64 µg/mL
same,MIC,Pseudomonas aeruginosa [2]; [13],>64 µg/mL
same,MIC,Pseudomonas aeruginosa [2]; [14],>64 µg/mL
same,MIC,Pseudomonas aeruginosa [2]; [15],64 µg/mL
same,MIC,Pseudomonas aeruginosa [2]; [16],>64 µg/mL
same,MIC,Pseudomonas aeruginosa [2]; [17],32 µg/mL
same,MIC,Pseudomonas aeruginosa [2]; [18],>64 µg/mL
same,MIC,Pseudomonas aeruginosa [2]; [19],64 µg/mL
same,MIC,Pseudomonas aeruginosa [2]; [20],32 µg/mL
same,MIC,Acinetobacter baumannii; [21],64 µg/mL
same,MIC,Acinetobacter baumannii; [22],>64 µg/mL
same,MIC,Acinetobacter baumannii; [23],>64 µg/mL
same,MIC,Acinetobacter baumannii; [24],>64 µg/mL
same,MIC,Acinetobacter baumannii; [25],64 µg/mL
same,MIC,Acinetobacter baumannii; [26],64 µg/mL
same,MIC,Acinetobacter baumannii; [27],64 µg/mL
same,MIC,Acinetobacter baumannii; [28],>64 µg/mL
same,MIC,Acinetobacter baumannii; [29],>64 µg/mL
same,MIC,Acinetobacter baumannii; [30],>64 µg/mL
same,MIC,Acinetobacter baumannii; [31],>64 µg/mL
same,MIC,Klebsiella pneumoniae; [32],>64 µg/mL
same,MIC,Klebsiella pneumoniae; [33],>64 µg/mL
same,MIC,Klebsiella pneumoniae; [34],>64 µg/mL
same,MIC,Klebsiella pneumoniae; [35],>64 µg/mL
same,MIC,Klebsiella pneumoniae; [36],>64 µg/mL
same,MIC,Klebsiella pneumoniae; [37],>64 µg/mL
same,MIC,Klebsiella pneumoniae; [38],4 µg/mL
same,MIC,Klebsiella pneumoniae; [39],>64 µg/mL
same,MIC,Klebsiella pneumoniae; [40],>64 µg/mL
same,MIC,Klebsiella pneumoniae; [41],>64 µg/mL
same,MIC,Klebsiella pneumoniae; [42],>64 µg/mL
same,MIC,Klebsiella pneumoniae; [43],4 µg/mL
same,MIC,Escherichia coli [5]; [44],0.25 µg/mL
same,MIC,Escherichia coli [5]; [45],0.12 µg/mL
same,MIC,Escherichia coli [5]; [46],0.12 µg/mL
same,MIC,Escherichia coli [5]; [47],>64 µg/mL
same,MIC,Escherichia coli [5]; [48],>64 µg/mL
same,MIC,Escherichia coli [5]; [49],>64 µg/mL
same,MIC,"Escherichia coli [5]; Escherichia coli CDC 435, NDM",>64 µg/mL
same,MIC,"Escherichia coli [5]; Escherichia coli CDC 451, KPC",64 µg/mL
same,MIC,Escherichia coli [5]; [50],>64 µg/mL
same,MIC,"Escherichia coli [5]; Escherichia coli MMX 5745, KPC",32 µg/mL
same,MIC,Escherichia coli [5]; [51],>64 µg/mL
same,MIC,Escherichia coli [5]; [52],>64 µg/mL
same,MIC,Escherichia coli [5]; [53],16 µg/mL
same,"MIC, QC range",Pseudomonas aeruginosa [6],(1-4) μg/mL
same,"MIC, QC range",Escherichia coli [8],(0.06-0.5) μg/mL
